Results published in the supplement of paper PMC10307832.

What was measured:
Test in all cases: relative viability (nuclei count vs DMSO), 5 days (fraction); higher = more cells survive
[1] = compound: CCC1=CN=CN=C1N2CCN(CC2)CC3=NC4=C(N3)C=C(C=C4)C(F)(F)F
Outline: (§1)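 Vehicle-anchored 1536-well plates of lung cancer cell lines, held overnight at 37 °C, were pinned with five library-drug doses (not always all listed) spaced by √10. No medium change followed over the next 5 days, after which the cells were fixed, permeabilised and Hoechst-stained together and imaged at 4×. Nuclei were counted with MetaXpress, and viability is treated-well nuclei over vehicle-well nuclei, taken as a median across plates. Plates passed with control CV below 25% and at least one doubling.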

[2] = compound: CCn1c(-c2nonc2N)nc2cnc(Oc3cccc(NC(=O)c4ccc(OCCN5CCOCC5)cc4)c3)cc21
Outline: as §1

Mirin = compound: N=C1NC(=O)/C(=C/c2ccc(O)cc2)S1 [Mirin]
Outline: as §1

[3] = compound: CCn1c(-c2nonc2N)nc2cnc(Oc3cccc(NC(=O)c4ccc(OCCN5CCOCC5)cc4)c3)cc21 + Cc1nc(Nc2ncc(C(=O)Nc3c(C)cccc3Cl)s2)cc(N2CCN(CCO)CC2)n1 [Dasatinib] (partner 0.075 µM)
Outline: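 Nuclei were stained with Hoechst during a one-step fixation (final 0.05% Triton X-100, 1% formaldehyde, 1 ug/ml Hoechst) carried out 5 days after dosing, then counted on 4× images. The cells, lung cancer lines in 1536-well plates, had been dosed by pin tool the day after seeding with one drug alone or a fixed anchor-drug dose plus five library-drug doses (not always all listed) in √10 steps. Relative viability is the nuclei count in treated wells divided by that in vehicle wells, and each value is the median of duplicate plates.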

Cell Line	relative viability ([1]; 0.04 µM)	relative viability ([1]; 0.1265 µM)	relative viability ([1]; 0.4 µM)	relative viability ([1]; 1.265 µM)	relative viability ([1]; 4 µM)	relative viability ([2]; 0.04 µM)	relative viability ([2]; 0.1265 µM)	relative viability ([2]; 0.4 µM)	relative viability ([2]; 1.265 µM)	relative viability ([2]; 4 µM)	relative viability (Mirin; 0.25 µM)	relative viability (Mirin; 0.7906 µM)	relative viability (Mirin; 2.5 µM)	relative viability (Mirin; 7.906 µM)	relative viability (Mirin; 25 µM)	relative viability ([3]; first compound 0.04 µM)	relative viability ([3]; first compound 0.1265 µM)	relative viability ([3]; first compound 0.4 µM)	relative viability ([3]; first compound 1.265 µM)	relative viability ([3]; first compound 4 µM)
Calu-6	1	0.986	0.953	0.898	0.925	1.05	1.02	0.841	0.604	0.549	1.02	1.07	1.06	0.923	0.987	–	–	–	–	–
ChaGo-K-1	1.01	0.961	0.932	0.961	0.97	1.14	1.02	0.801	0.833	0.879	0.986	0.916	0.93	0.887	0.833	0.592	0.442	0.365	0.394	0.395
EBC-1	1.08	1.01	0.986	0.946	0.996	1.24	1.01	0.913	0.904	0.797	1.09	1.19	1.05	0.987	0.665	–	–	–	–	–
EKVX	1.03	0.806	0.933	0.782	1.04	1.24	0.957	0.932	0.87	0.855	0.962	0.905	1.09	0.925	0.986	0.565	0.277	0.434	0.457	0.427
EMC-BAC-2	0.77	0.877	0.925	0.802	1.15	0.94	0.862	0.43	0.405	0.343	0.993	0.907	1.01	0.857	0.971	0.305	0.244	0.134	0.161	0.154
EPLC-272H	0.801	0.979	0.87	0.797	0.793	1.26	1.01	0.873	0.705	0.74	0.944	–	0.945	0.762	0.721	0.513	0.326	0.159	0.263	0.227
H3255	0.97	0.95	0.913	0.874	0.919	1.14	1.01	0.898	0.67	0.732	0.982	0.962	0.992	0.936	1	0.375	0.367	0.331	0.341	0.291
HARA	0.891	0.902	0.863	0.654	1.08	1.11	0.782	0.563	0.258	0.28	1.09	0.803	0.918	0.939	0.916	0.243	0.213	0.124	0.0816	0.074
HCC-15	0.999	0.946	0.934	0.897	1.04	1.12	0.964	0.844	0.77	0.911	1.06	0.798	0.979	0.884	0.953	0.618	0.464	0.349	–	0.395
